Laboratory results from PubChem BioAssay AID1963873 (Molecular Pharmacology Branch, DTP, NCI, 2024).
pIC50: −log10 of the molar value.

Test system: 276233-004-R-J1-PDC KRAS spheroids with HUVEC/MSC, viability
Test: Anticancer human tumor 276233-004-R-J1-PDC patient-derived colon adenocarcinoma cell line growth inhibition [KRAS2]
Conditions: for pIC50: curve of first compound; for viability, T/C: stronger effect = lower value
Method in brief: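 KRAS-mutant tumor cells were grown as spheroids with HUVEC endothelial cells and human MSCs as stroma. Targeted agents were tested alone and with KRAS pathway inhibitors. Doses started at or near clinical Cmax, or 10 microM, descending half-log.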

[1] = second compound 0.1 µM, first compound 0.0316 µM
[2] = second compound 0.1 µM, first compound 0.1 µM
[3] = second compound 0.1 µM, first compound 0.316 µM
[4] = second compound 0.1 µM, first compound 1 µM
[5] = second compound 0.1 µM, first compound 3.16 µM
[6] = second compound 0.1 µM, first compound 10 µM
[7] = second compound 0.316 µM, first compound 0.0316 µM
[8] = second compound 0.316 µM, first compound 0.1 µM
[9] = second compound 0.316 µM, first compound 0.316 µM
[10] = second compound 0.316 µM, first compound 1 µM
[11] = second compound 0.316 µM, first compound 3.16 µM
[12] = second compound 0.316 µM, first compound 10 µM
[13] = second compound 1 µM, first compound 0.0316 µM
[14] = second compound 1 µM, first compound 0.1 µM
[15] = second compound 1 µM, first compound 0.316 µM
[16] = second compound 1 µM, first compound 1 µM
[17] = second compound 1 µM, first compound 3.16 µM
[18] = second compound 1 µM, first compound 10 µM
[19] = second compound 3.16 µM, first compound 0.0316 µM
[20] = second compound 3.16 µM, first compound 0.1 µM
[21] = second compound 3.16 µM, first compound 0.316 µM
[22] = second compound 3.16 µM, first compound 1 µM
[23] = second compound 3.16 µM, first compound 3.16 µM
[24] = second compound 3.16 µM, first compound 10 µM
[25] = second compound 10 µM, first compound 0.0316 µM
[26] = second compound 10 µM, first compound 0.1 µM
[27] = second compound 10 µM, first compound 0.316 µM
[28] = second compound 10 µM, first compound 1 µM
[29] = second compound 10 µM, first compound 3.16 µM
[30] = second compound 10 µM, first compound 10 µM
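Also: cells exposed to agents for seven days before viability read.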
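For viability, T/C in this document: 100% = DMSO vehicle control wells and lower values mean fewer viable cells.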

Row | Structure (SMILES) | pIC50 (second compound 0.1 µM) | pIC50 (second compound 0.316 µM) | pIC50 (second compound 1 µM) | pIC50 (second compound 3.16 µM) | viability, T/C [1] | viability, T/C [2] | viability, T/C [3] | viability, T/C [4] | viability, T/C [7] | viability, T/C [8] | viability, T/C [9] | viability, T/C [10] | viability, T/C [13] | viability, T/C [14] | viability, T/C [15] | viability, T/C [16] | viability, T/C [19] | viability, T/C [20] | viability, T/C [21] | viability, T/C [22] | other results
1 | Cn1nccc1Nc1nccc(-c2cc3c(s2)C(C)(C)N(CCN2CCOCC2)C3=O)n1 + CNCc1ccccc1-c1csc(C(C)Nc2nc(C)nc3cc(OC)c(OC)cc23)c1 | 5.14 | < 5.00 | 5.97 | > 7.50 | 107% | 91.7% | 80.2% | 81.6% | 115% | 89.9% | 94.2% | 79.3% | 86% | 83.1% | 68% | 52.4% | 3.02% | 2.17% | 2.97% | 3.66% | pIC50 (second compound 10 µM): > 7.50; viability, T/C [5]: 49.3%; viability, T/C [6]: 49.4%; viability, T/C [11]: 50.1%; viability, T/C [12]: 60.2%; viability, T/C [17]: 27.3%; viability, T/C [18]: 6.69%; viability, T/C [23]: 1.05%; viability, T/C [24]: 0.59%; viability, T/C [25]: 2.67%; viability, T/C [26]: 2.95%; viability, T/C [27]: 1.94%; viability, T/C [28]: 1.75%; viability, T/C [29]: 1.4%; viability, T/C [30]: 0.24%
2 | CCN1CCN(Cc2ccc(Nc3ncc(F)c(-c4cc(F)c5nc(C)n(C(C)C)c5c4)n3)nc2)CC1 + C=CC(=O)N1CCN(c2nc(OCC3CCCN3C)nc3c2CCN(c2cccc4cccc(C)c24)C3)CC1CC#N | < 6.00 | < 6.00 | < 6.00 | 7.22 | 86% | 81% | 97% | 96.4% | 77.4% | 86% | 78% | 90.7% | 96.5% | 87.4% | 66.2% | 110% | 65.9% | 39.6% | 43.5% | 26.5% | pIC50 (second compound 0.0316 µM): < 6.00; viability, T/C (second compound 0.0316 µM, first compound 0.00316 µM): 102%; viability, T/C (second compound 0.0316 µM, first compound 0.01 µM): 87%; viability, T/C (second compound 0.0316 µM, first compound 0.0316 µM): 87.1%; viability, T/C (second compound 0.0316 µM, first compound 0.1 µM): 69.2%; viability, T/C (second compound 0.0316 µM, first compound 0.316 µM): 95.5%; viability, T/C (second compound 0.0316 µM, first compound 1 µM): 112%; viability, T/C (second compound 0.1 µM, first compound 0.00316 µM): 109%; viability, T/C (second compound 0.1 µM, first compound 0.01 µM): 86.4%; viability, T/C (second compound 0.316 µM, first compound 0.00316 µM): 95.1%; viability, T/C (second compound 0.316 µM, first compound 0.01 µM): 83.7%; viability, T/C (second compound 1 µM, first compound 0.00316 µM): 81.4%; viability, T/C (second compound 1 µM, first compound 0.01 µM): 83.7%; viability, T/C (second compound 3.16 µM, first compound 0.00316 µM): 56.5%; viability, T/C (second compound 3.16 µM, first compound 0.01 µM): 65.8%
3 | Cn1nccc1Nc1nccc(-c2cc3c(s2)C(C)(C)N(CCN2CCOCC2)C3=O)n1 |  |  |  |  |  |  |  |  |  |  |  |  |  |  |  |  |  |  |  |  | viability, T/C (compound 0.1 µM): 96.5% [middle of 5 runs]; viability, T/C (compound 0.316 µM): 86.1% [middle of 5 runs]; viability, T/C (compound 1 µM): 79.7% [middle of 5 runs]; viability, T/C (compound 3.16 µM): 54.2% [middle of 5 runs]; viability, T/C (compound 10 µM): 49.9% [middle of 5 runs]
4 | CC1OCC2(CCN(c3cnc(Sc4ccnc(N)c4Cl)c(N)n3)CC2)C1N (stereo not given) + CNCc1ccccc1-c1csc(C(C)Nc2nc(C)nc3cc(OC)c(OC)cc23)c1 | < 5.00 | < 5.00 | 6.41 | > 7.50 | 73.8% | 101% | 66.1% | 82% | 92.8% | 90.2% | 68.6% | 60.9% | 88.9% | 84.1% | 50.8% | 50% | 0.87% | 0.85% | 1.57% | 2.11% | pIC50 (second compound 10 µM): > 7.50; viability, T/C [5]: 73.3%; viability, T/C [6]: 59%; viability, T/C [11]: 66%; viability, T/C [12]: 46.5%; viability, T/C [17]: 50.3%; viability, T/C [18]: 34.5%; viability, T/C [23]: 0.56%; viability, T/C [24]: 3.18%; viability, T/C [25]: 1.45%; viability, T/C [26]: 3.57%; viability, T/C [27]: 0.22%; viability, T/C [28]: 0.25%; viability, T/C [29]: 0.32%; viability, T/C [30]: 5.87%
5 | CCNC(=O)CC1N=C(c2ccc(Cl)cc2)c2cc(OC)ccc2-n2c(C)nnc21 (stereo not given) + COc1cc2nc(C)nc(NC(C)c3cc(N)cc(C(F)(F)F)c3)c2cc1OC1CCOC1 | < 5.00 | 5.61 | 5.92 | 5.63 | 101% | 67.1% | 61.4% | 55% | 94.6% | 80.2% | 69.5% | 54.5% | 84.7% | 77.7% | 60.3% | 42.7% | 62.3% | 69.7% | 62.2% | 50.8% | pIC50 (second compound 10 µM): > 7.50; viability, T/C [5]: 50.4%; viability, T/C [6]: 49.2%; viability, T/C [11]: 45.7%; viability, T/C [12]: 48.2%; viability, T/C [17]: 44%; viability, T/C [18]: 34.4%; viability, T/C [23]: 46%; viability, T/C [24]: 43.2%; viability, T/C [25]: 31.6%; viability, T/C [26]: 33.9%; viability, T/C [27]: 22.6%; viability, T/C [28]: 12.9%; viability, T/C [29]: 11.1%; viability, T/C [30]: 8.17%
